This passage reports EC50 results from US12599582B2, “Pyrrole compounds” (ALIGOS THERAPEUTICS, INC., priority 2019, dated 2026).

The subject of the assay is HBV. As to the kind of experiment: HBV-DNA Antiviral Assay Using HepG2.2.15 Cells (extracellular HBV DNA by qPCR). It is filed as cell-based, hepatitis B virus (HBV). As to the method:
The following assay procedure describes the HBV antiviral assay. This assay uses HepG2.2.15 cells, which have been transfected with HBV genome, and extracellular HBV DNA quantification as endpoint. Cell viability is assessed in parallel by measuring the intracellular ATP content using the CellTiter-Glo® reagent from Promega.
On day 0, HepG2.2.15 cells were seeded in 96-well plates at a density of 6.0×10^4 cells/well (0.1 mL/well). The cells were incubated at 37° C. and 5% CO2.
On day 1, the test articles were diluted and added to cell culture wells (8 concentrations, 4-fold dilution, in duplicate). GLS4, Tenofovir and Sorafenib were used as reference compounds. 100 μL of culture medium containing the compounds was added to the plate, and the final total volume per well was 200 μL. The final concentration of DMSO in the culture medium was 0.5%. The plate map of compound treatment is shown below. The cells were cultured at 37° C. and 5% CO2 for 3 days.
On day 4, the plates were refreshed with culture media with compounds.
On day 7, cell viability was assessed using the CellTiter-Glo®, and the cell culture supernatants were collected for determination of HBV DNA by qPCR.
Extracellular DNA was isolated with QIAamp 96 DNA Blood Kit per the manufacturer's manual. HBV DNA was then quantified by qPCR with HBV specific primers and probes as specified in Table 1 using the FastStart Universal MasterMix from Roche on an ABI-7900HT. The PCR cycle program consisted of 95° C. for 10 min, followed by 40 cycles at 95° C. for 15 sec and 60° C. for 1 min.
A DNA standard was prepared by dilution of the pAAV2 HBV1.3 plasmid with concentrations ranging from 10 to 1×10^7 copies/uL and used to generate a standard curve by plotting Ct value vs. the concentration of the HBV plasmid DNA standard. The quantity of HBV DNA in each sample was determined by interpolating from the standard curve.
Cell viability was calculated as follows: % Cell viability=(luminescence value of test sample−average luminescence value of blank)/(average luminescence value of 0.5% DMSO control−average luminescence of blank)×100%. HBV DNA inhibition was calculated as follows: 100−(HBV DNA copy number of test sample−HBV DNA copy number of ETV)/HBV DNA copy number of 0.5% DMSO control−HBV DNA copy number of ETV)×100%. The CC50, EC50 and EC90 values were determined by dose-response curves fitted by GraphPad Prism using “log (agonist) vs. response—Variable slope”.
A general note: Real-time PCR tracks product formation cycle by cycle.

The mark [1] stands for this setting: Hepatitis B virus, HBV DNA inhibition, HepG2.2.15 cells, extracellular HBV DNA by qPCR, read-out: EC50.

Each structure is given as a SMILES string. pEC50: −log10 of the molar value. Where two headings read alike, the source gives them in different places.

What is called pEC50 is the EC50 on a negative log10 scale, so that one unit is a factor of ten. `C#CCNC(=O)C(=O)c1cc(C(=O)Nc2ccc(F)c(C#N)c2)n(C)c1Cl` [Compound 25, 5-chloro-N-(3-cyano-4-fluoro-phenyl)-1-methyl-4-[2-oxo-2-(prop-2-ynylamino)acetyl]pyrrole-2-carboxamide]: under setting [1], the negative-log EC50 (pEC50) is 6.00 to 7.00.

Under “Hepatitis B virus, HepG2.2.15”, `C#CC1(NC(=O)C(=O)c2c(C)c(C(=O)Nc3ccc(F)c(C#N)c3)n(C)c2C)COC1` [Compound 26, N-(3-cyano-4-fluorophenyl)-4-[[(3-ethynyloxetan-3-yl)carbamoyl]carbonyl]-1,3,5-trimethylpyrrole-2-carboxamide] gave a pEC50 of more than 9.00.

For the compound `C#CCNC(=O)C(=O)c1cc(C(=O)Nc2ccc(F)c(C#N)c2)n(C)c1C` [Compound 27, N-(3-cyano-4-fluoro-phenyl)-1,5-dimethyl-4-[2-oxo-2-(prop-2-ynylamino)acetyl]pyrrole-2-carboxamide], under setting [1], the negative logarithm of the EC50 (pEC50) was 7.00 to 8.00.

Regarding `C#C[C@@H](COC)NC(=O)C(=O)c1c(C)c(C(=O)Nc2ccc(F)c(C#N)c2)n(C)c1C` [Compound 28a, N-(3-cyano-4-fluoro-phenyl)-4-[2-[[(1S)-1-(methoxymethyl)prop-2-ynyl]amino]-2-oxo-acetyl]-1,3,5-trimethyl-pyrrole-2-carboxamide], under setting [1], the pEC50 was 8.00 to 9.00.

As to `C#C[C@H](COC)NC(=O)C(=O)c1c(C)c(C(=O)Nc2ccc(F)c(C#N)c2)n(C)c1C` [Compound 28b, N-(3-cyano-4-fluoro-phenyl)-4-[2-[[(1R)-1-(methoxymethyl)prop-2-ynyl]amino]-2-oxo-acetyl]-1,3,5-trimethyl-pyrrole-2-carboxamide], the pEC50 under setting [1] is 8.00 to 9.00.

Consider `Cc1c(C(=O)C(=O)NC2(c3c[nH]nn3)COC2)c(C)n(C)c1C(=O)Nc1ccc(F)c(C#N)c1` [Compound 29, N-(3-cyano-4-fluoro-phenyl)-1,3,5-trimethyl-4-[2-oxo-2-[[3-(1H-triazol-4-yl)oxetan-3-yl]amino]acetyl]pyrrole-2-carboxamide], for which the negative-log EC50 (pEC50) (HBV DNA inhibition, HepG2.2.15 cells, extracellular HBV DNA by qPCR, read-out: EC50) is 8.00 to 9.00.

For `C#C[C@H](NC(=O)C(=O)c1c(C)c(C(=O)Nc2ccc(F)c(C#N)c2)n(C)c1C)C(C)(C)C` [Compound 30a, N-(3-cyano-4-fluoro-phenyl)-1,3,5-trimethyl-4-[2-oxo-2-[[(1R)-1-tert-butylprop-2-ynyl]amino]acetyl]pyrrole-2-carboxamide], under setting [1], the negative-log EC50 (pEC50) is more than 9.00.

Turning to `C#C[C@@H](NC(=O)C(=O)c1c(C)c(C(=O)Nc2ccc(F)c(C#N)c2)n(C)c1C)C(C)(C)C` [Compound 30b, N-(3-cyano-4-fluoro-phenyl)-1,3,5-trimethyl-4-[2-oxo-2-[[(1S)-1-tert-butylprop-2-ynyl]amino]acetyl]pyrrole-2-carboxamide], under setting [1], the pEC50 is more than 9.00.

Regarding `C#CC1(NC(=O)C(=O)c2c(C)c(C(=O)Nc3ccc(F)c(C#N)c3)n(C)c2C)CC(O)C1` (stereo not drawn) [Compound 32, N-(3-cyano-4-fluorophenyl)-4-[[(1-ethynyl-3-hydroxycyclobutyl)carbamoyl]carbonyl]-1,3,5-trimethylpyrrole-2-carboxamide], the negative-log EC50 (pEC50) under setting [1] is 8.00 to 9.00.

Regarding `C=CC1(NC(=O)C(=O)c2c(C)c(C(=O)Nc3ccc(F)c(C#N)c3)n(C)c2C)COC1` [Compound 33, N-(3-cyano-4-fluoro-phenyl)-1,3,5-trimethyl-4-[2-oxo-2-[(3-vinyloxetan-3-yl)amino]acetyl]pyrrole-2-carboxamide], the pEC50 under setting [1] is 8.00 to 9.00.

For the compound `C#CC1(NC(=O)C(=O)c2c(C)c(C(=O)Nc3ccc(F)c(C(F)(F)F)c3)n(C)c2C)COC1` [Compound 34, 4-[2-[(3-ethynyloxetan-3-yl)amino]-2-oxo-acetyl]-N-[4-fluoro-3-(trifluoromethyl)phenyl]-1,3,5-trimethyl-pyrrole-2-carboxamide], the pEC50 under setting [1] was more than 9.00.

Turning to `C#CC(C)(C)NC(=O)C(=O)c1c(C)c(C(=O)Nc2ccc(F)c(C(F)(F)F)c2)n(C)c1C` [Compound 35, 4-[2-(1,1-dimethylprop-2-ynylamino)-2-oxo-acetyl]-N-[4-fluoro-3-(trifluoromethyl)phenyl]-1,3,5-trimethyl-pyrrole-2-carboxamide], the pEC50 under setting [1] is more than 9.00.

As for `C=C[C@H](NC(=O)C(=O)c1c(C)c(C(=O)Nc2ccc(F)c(C#N)c2)n(C)c1C)C(F)(F)F` [Compound 36a, N-(3-cyano-4-fluoro-phenyl)-1,3,5-trimethyl-4-[2-oxo-2-[[(1S)-1-(trifluoromethyl)allyl]amino]acetyl]pyrrole-2-carboxamide], under setting [1], the negative-log EC50 (pEC50) is more than 9.00.

For `C=C[C@@H](NC(=O)C(=O)c1c(C)c(C(=O)Nc2ccc(F)c(C#N)c2)n(C)c1C)C(F)(F)F` [Compound 36b, N-(3-cyano-4-fluoro-phenyl)-1,3,5-trimethyl-4-[2-oxo-2-[[(1R)-1-(trifluoromethyl)allyl]amino]acetyl]pyrrole-2-carboxamide], the negative-log EC50 (pEC50) under setting [1] was more than 9.00.

`C#CC1(NC(=O)C(=O)c2c(C)c(C(=O)Nc3ccc(F)c(C(F)(F)F)c3)n(C)c2C)CC(F)(F)C1` [Compound 37, 4-[2-[(1-ethynyl-3,3-difluoro-cyclobutyl)amino]-2-oxo-acetyl]-N-[4-fluoro-3-(trifluoromethyl)phenyl]-1,3,5-trimethyl-pyrrole-2-carboxamide]: the pEC50 under setting [1] is more than 9.00.

As to `C#C[C@H](NC(=O)C(=O)c1c(C)c(C(=O)Nc2ccc(F)c(C(F)(F)F)c2)n(C)c1C)C1CC1` [Compound 38a, N-[4-fluoro-3-(trifluoromethyl)phenyl]-1,3,5-trimethyl-4-[2-oxo-2-[[(1R)-1-cyclopropylprop-2-ynyl]amino]acetyl]pyrrole-2-carboxamide], the negative-log EC50 (pEC50) under setting [1] is more than 9.00.

On to `C#C[C@@H](NC(=O)C(=O)c1c(C)c(C(=O)Nc2ccc(F)c(C(F)(F)F)c2)n(C)c1C)C1CC1` [Compound 38b, N-[4-fluoro-3-(trifluoromethyl)phenyl]-1,3,5-trimethyl-4-[2-oxo-2-[[(1S)-1-cyclopropylprop-2-ynyl]amino]acetyl]pyrrole-2-carboxamide], for which the pEC50 under setting [1] was more than 9.00.

As for `C#CC1(NC(=O)C(=O)c2c(C)c(C(=O)Nc3ccc(F)c(C#N)c3)n(C)c2Cl)CC(F)(F)C1` [Compound 39, 5-chloro-N-(3-cyano-4-fluoro-phenyl)-4-[2-[(1-ethynyl-3,3-difluoro-cyclobutyl)amino]-2-oxo-acetyl]-1,3-dimethyl-pyrrole-2-carboxamide], the negative-log EC50 (pEC50) under setting [1] is more than 9.00.

Take `C#CC1(NC(=O)C(=O)c2c(C)c(C(=O)Nc3ccc(F)c(C#N)c3)n(C)c2Cl)COC1` [Compound 40, 5-chloro-N-(3-cyano-4-fluoro-phenyl)-4-[2-[(3-ethynyloxetan-3-yl)amino]-2-oxo-acetyl]-1,3-dimethyl-pyrrole-2-carboxamide]: under setting [1], the negative-log EC50 (pEC50) is more than 9.00.

In the case of `C=CC1(NC(=O)C(=O)c2c(C)c(C(=O)Nc3ccc(F)c(C#N)c3)n(C)c2Cl)COC1` [Compound 41, 5-chloro-N-(3-cyano-4-fluoro-phenyl)-1,3-dimethyl-4-[2-oxo-2-[(3-vinyloxetan-3-yl)amino]acetyl]pyrrole-2-carboxamide], the pEC50 under setting [1] is 8.00 to 9.00.

In the case of `C#CC1(NC(=O)C(=O)c2c(C)c(C(=O)Nc3ccc(F)c(C(F)(F)F)c3)n(C)c2C)CC(O)C1` (stereo not drawn) [Compound 49, 4-[2-[(1-ethynyl-3-hydroxy-cyclobutyl)amino]-2-oxo-acetyl]-N-[4-fluoro-3-(trifluoromethyl)phenyl]-1,3,5-trimethyl-pyrrole-2-carboxamide], the negative-log EC50 (pEC50) under setting [1] is more than 9.00.

With `CC#CC1(NC(=O)C(=O)c2c(C)c(C(=O)Nc3ccc(F)c(C#N)c3)n(C)c2C)COC1` [Compound 50, N-(3-cyano-4-fluoro-phenyl)-1,3,5-trimethyl-4-[2-oxo-2-[(3-prop-1-ynyloxetan-3-yl)amino]acetyl]pyrrole-2-carboxamide], the negative logarithm of the EC50 (pEC50) under setting [1] was more than 9.00.

Turning to `C=CC1(NC(=O)C(=O)c2c(Cl)c(C(=O)Nc3ccc(F)c(C#N)c3)n(C)c2C)CC(F)(F)C1` [Compound 51, 3-chloro-N-(3-cyano-4-fluoro-phenyl)-4-[2-[(3,3-difluoro-1-vinyl-cyclobutyl)amino]-2-oxo-acetyl]-1,5-dimethyl-pyrrole-2-carboxamide], the negative-log EC50 (pEC50) under setting [1] is more than 9.00.

For `C#CC1(NC(=O)C(=O)c2c(Cl)c(C(=O)Nc3ccc(F)c(C#N)c3)n(C)c2C)CC(F)(F)C1` [Compound 52, 3-chloro-N-(3-cyano-4-fluoro-phenyl)-4-[2-[(1-ethynyl-3,3-difluoro-cyclobutyl)amino]-2-oxo-acetyl]-1,5-dimethyl-pyrrole-2-carboxamide], under setting [1], the pEC50 is more than 9.00.
